Patent publication US20250171438A1 (Agios Pharmaceuticals, Inc., priority 2022, published 2025)

Target: T1, human PAH with the R408W mutation (Homo sapiens, UniProt P00439, R408W)
T1 construct: expressed in transfected cells
T1 sequence (P00439 1-452 R408W): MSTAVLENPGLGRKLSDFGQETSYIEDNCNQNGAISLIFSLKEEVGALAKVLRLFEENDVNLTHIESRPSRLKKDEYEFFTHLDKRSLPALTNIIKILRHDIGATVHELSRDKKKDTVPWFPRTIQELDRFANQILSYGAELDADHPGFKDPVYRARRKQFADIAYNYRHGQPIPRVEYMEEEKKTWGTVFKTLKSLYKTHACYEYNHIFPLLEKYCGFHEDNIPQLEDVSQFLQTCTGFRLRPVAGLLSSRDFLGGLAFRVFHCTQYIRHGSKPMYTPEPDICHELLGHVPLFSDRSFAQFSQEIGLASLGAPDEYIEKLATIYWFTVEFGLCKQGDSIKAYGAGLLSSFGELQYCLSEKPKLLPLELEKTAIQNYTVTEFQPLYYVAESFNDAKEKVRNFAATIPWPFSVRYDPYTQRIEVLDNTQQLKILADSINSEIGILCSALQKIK
Experiment: Cell Based Phenylalanine Flux Assay
Conditions: A375 cells expressing human R408W PAH; 24 hrs compound incubation; 13C-Tyrosine by LC-MS; average where tested multiple times; read-out: AC50

SMILES	AC50
O=C(c1cnn(CC(F)(F)F)c1Cl)N1CCc2[nH]cnc2[C@@H]1c1nc2c(F)cccc2s1 [Example 1968, (R)-(5-chloro-1-(2,2,2-trifluoroethyl)-1H-pyrazol-4-yl)(4-(4-fluorobenzo[d]thiazol-2-yl)-6,7-dihydro-1H-imidazo[4,5-c]pyridin-5(4H)-yl)methanone]	1000 to 5000 nM
O=C(c1cnn(C2CC2)c1Cl)N1CCc2[nH]cnc2[C@H]1c1nc2c(F)cccc2s1 [Example 1969]	500 to 1000 nM
O=C(c1cnn(C2CC2)c1Cl)N1CCc2[nH]cnc2[C@@H]1c1nc2c(F)cccc2s1 [Example 1970, (R)-(5-chloro-1-cyclopropyl-1H-pyrazol-4-yl)(4-(4-fluorobenzo[d]thiazol-2-yl)-6,7-dihydro-1H-imidazo[4,5-c]pyridin-5(4H)-yl)methanone]	1000 to 5000 nM
O=C(c1cnn(CC2CC2)c1Cl)N1CCc2[nH]cnc2[C@H]1c1nc2c(F)cccc2s1 [Example 1971, (S)-(5-chloro-1-(cyclopropylmethyl)-1H-pyrazol-4-yl)(4-(4-fluorobenzo[d]thiazol-2-yl)-6,7-dihydro-1H-imidazo[4,5-c]pyridin-5(4H)-yl)methanone]	500 to 1000 nM
O=C(c1cnn(CC2CC2)c1Cl)N1CCc2[nH]cnc2[C@@H]1c1nc2c(F)cccc2s1 [Example 1972, (R)-(5-chloro-1-(cyclopropylmethyl)-1H-pyrazol-4-yl)(4-(4-fluorobenzo[d]thiazol-2-yl)-6,7-dihydro-1H-imidazo[4,5-c]pyridin-5(4H)-yl)methanone]	1000 to 5000 nM
O=C(c1cnn(CC(F)(F)F)c1C(F)F)N1CCc2[nH]cnc2[C@H]1c1nc2ccccc2s1 [Example 1973]	< 500 nM
O=C(c1cnn(CC(F)(F)F)c1C(F)F)N1CCc2[nH]cnc2[C@@H]1c1nc2ccccc2s1 [Example 1974, (R)-(4-(benzo[d]thiazol-2-yl)-6,7-dihydro-1H-imidazo[4,5-c]pyridin-5(4H)-yl)(5-(difluoromethyl)-1-(2,2,2-trifluoroethyl)-1H-pyrazol-4-yl)methanone]	1000 to 5000 nM
O=C(c1cnn(CC(F)(F)F)c1C(F)F)N1CCc2[nH]cnc2[C@H]1c1nc2c(F)cccc2s1 [Example 1975]	1000 to 5000 nM
O=C(c1cnn(CC(F)(F)F)c1C(F)F)N1CCc2[nH]cnc2[C@@H]1c1nc2c(F)cccc2s1 [Example 1976, (R)-(5-(difluoromethyl)-1-(2,2,2-trifluoroethyl)-1H-pyrazol-4-yl)(4-(4-fluorobenzo[d]thiazol-2-yl)-6,7-dihydro-1H-imidazo[4,5-c]pyridin-5(4H)-yl)methanone]	500 to 1000 nM
Cn1nc(Br)nc1C(=O)N1CCc2[nH]cnc2[C@H]1c1nc2ccccc2s1 [Example 1977]	1000 to 5000 nM
Cn1nc(Br)nc1C(=O)N1CCc2[nH]cnc2[C@@H]1c1nc2ccccc2s1 [Example 1978, (R)-(4-(benzo[d]thiazol-2-yl)-6,7-dihydro-1H-imidazo[4,5-c]pyridin-5(4H)-yl)(3-bromo-1-methyl-1H-1,2,4-triazol-5-yl)methanone]	1000 to 5000 nM
C[C@@H](O)c1nc(C(F)F)c(C(=O)N2CCc3[nH]cnc3[C@@H]2c2nc3c(F)cccc3s2)o1 [Example 1979, (4-(difluoromethyl)-2-((R)-1-hydroxyethyl)oxazol-5-yl)((R)-4-(4-fluorobenzo[d]thiazol-2-yl)-6,7-dihydro-1H-imidazo[4,5-c]pyridin-5(4H)-yl)methanone]	500 to 1000 nM
C[C@@H](O)c1nc(C(F)F)c(C(=O)N2CCc3[nH]cnc3[C@H]2c2nc3c(F)cccc3s2)o1 [Example 1980, (4-(difluoromethyl)-2-((R)-1-hydroxyethyl)oxazol-5-yl) ((S)-4-(4-fluorobenzo[d]thiazol-2-yl)-6,7-dihydro-1H-imidazo[4,5-c]pyridin-5(4H)-yl)methanone]	< 500 nM
O=C(c1cn(CC(F)F)nc1Cl)N1CCc2[nH]cnc2[C@H]1c1nc2c(F)cccc2s1 [Example 1981, (S)-(3-chloro-1-(2,2-difluoroethyl)-1H-pyrazol-4-yl)(4-(4-fluorobenzo[d]thiazol-2-yl)-6,7-dihydro-1H-imidazo[4,5-c]pyridin-5(4H)-yl)methanone]	< 500 nM
O=C(c1cn(CC(F)F)nc1Cl)N1CCc2[nH]cnc2[C@@H]1c1nc2c(F)cccc2s1 [Example 1982, (R)-(3-chloro-1-(2,2-difluoroethyl)-1H-pyrazol-4-yl)(4-(4-fluorobenzo[d]thiazol-2-yl)-6,7-dihydro-1H-imidazo[4,5-c]pyridin-5(4H)-yl)methanone]	1000 to 5000 nM
O=C(c1cn(CC2CC2)nc1Cl)N1CCc2[nH]cnc2[C@H]1c1nc2c(F)cccc2s1 [Example 1983, (S)-(3-chloro-1-(cyclopropylmethyl)-1H-pyrazol-4-yl)(4-(4-fluorobenzo[d]thiazol-2-yl)-6,7-dihydro-1H-imidazo[4,5-c]pyridin-5(4H)-yl)methanone]	< 500 nM
O=C(c1cn(CC2CC2)nc1Cl)N1CCc2[nH]cnc2[C@@H]1c1nc2c(F)cccc2s1 [Example 1984, (R)-(3-chloro-1-(cyclopropylmethyl)-1H-pyrazol-4-yl)(4-(4-fluorobenzo[d]thiazol-2-yl)-6,7-dihydro-1H-imidazo[4,5-c]pyridin-5(4H)-yl)methanone]	1000 to 5000 nM
O=C(c1cn(CC(F)(F)F)nc1C(F)F)N1CCc2[nH]cnc2[C@H]1c1nc2ccccc2s1 [Example 1985]	< 500 nM
O=C(c1cn(CC(F)(F)F)nc1C(F)F)N1CCc2[nH]cnc2[C@@H]1c1nc2ccccc2s1 [Example 1986, (R)-(4-(benzo[d]thiazol-2-yl)-6,7-dihydro-1H-imidazo[4,5-c]pyridin-5(4H)-yl)(3-(difluoromethyl)-1-(2,2,2-trifluoroethyl)-1H-pyrazol-4-yl)methanone]	1000 to 5000 nM
O=C(c1cn(CC(F)(F)F)nc1C(F)F)N1CCc2[nH]cnc2[C@H]1c1nc2c(F)cccc2s1 [Example 1987]	< 500 nM
O=C(c1cn(CC(F)(F)F)nc1C(F)F)N1CCc2[nH]cnc2[C@@H]1c1nc2c(F)cccc2s1 [Example 1988, (R)-(3-(difluoromethyl)-1-(2,2,2-trifluoroethyl)-1H-pyrazol-4-yl)(4-(4-fluorobenzo[d]thiazol-2-yl)-6,7-dihydro-1H-imidazo[4,5-c]pyridin-5(4H)-yl)methanone]	1000 to 5000 nM
O=C(c1cnn(CC2CC(F)(F)C2)c1Cl)N1CCc2[nH]cnc2[C@H]1c1nc2c(F)cccc2s1 [Example 1989, (S)-(5-chloro-1-((3,3-difluorocyclobutyl)methyl)-1H-pyrazol-4-yl)(4-(4-fluorobenzo[d]thiazol-2-yl)-6,7-dihydro-1H-imidazo[4,5-c]pyridin-5(4H)-yl)methanone]	1000 to 5000 nM
O=C(c1cnn(CC2CC(F)(F)C2)c1Cl)N1CCc2[nH]cnc2[C@@H]1c1nc2c(F)cccc2s1 [Example 1990, (R)-(5-chloro-1-((3,3-difluorocyclobutyl)methyl)-1H-pyrazol-4-yl)(4-(4-fluorobenzo[d]thiazol-2-yl)-6,7-dihydro-1H-imidazo[4,5-c]pyridin-5(4H)-yl)methanone]	1000 to 5000 nM
CC(=O)Cn1cc(C(=O)N2CCc3[nH]cnc3[C@H]2c2nc3c(F)cccc3s2)c(Cl)n1 [Example 1991, (S)-1-(3-chloro-4-(4-(4-fluorobenzo[d]thiazol-2-yl)-4,5,6,7-tetrahydro-1H-imidazo[4,5-c]pyridine-5-carbonyl)-1H-pyrazol-1-yl)propan-2-one]	< 500 nM
